Laboratory results taken from publication PMC8945599, “VEGFA, B, C: Implications of the C-Terminal Sequence Variations for the Interaction with Neuropilins” (Biomolecules, 2022).
Where no end group is shown, it is not given here.

Tests used:
[1] = target: T1, NRP1-b1 (b1 domain of Neuropilin-1) (Homo sapiens, UniProt O14786); test: Surface plasmon resonance, peptide binding to immobilised NRP1-b1; conditions: SPR, Biacore T200, protein immobilised on CM5 chip (1000 RU), peptide 64 µM to 0.125 µM, 20 mM Tris pH 7.9, 50 mM NaCl
T1 construct: 6-His-tag with TEV protease cleavage site (N); made in house; host or cells: Rosetta-gami2(DE3)pLysS E. coli
T1 sequence (O14786 275-424 limits assumed): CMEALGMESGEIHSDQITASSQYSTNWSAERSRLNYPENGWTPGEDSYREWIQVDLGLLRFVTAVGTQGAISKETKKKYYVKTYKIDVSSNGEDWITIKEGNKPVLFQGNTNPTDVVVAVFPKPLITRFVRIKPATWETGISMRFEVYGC
From the text: (§1) Proteins were expressed and purified as previously described. NRP1-b1 and NRP2-b1 were expressed in Rosetta-gami2(DE3)pLysS E.coli cells that were transformed with a pET-15b vector containing NRP1-b1 and NRP2-b1 sequences with an N-terminal 6-His-tag and a TEV protease cleavage site. After the cells were harvested by centrifugation and lysed by sonication, the proteins were purified from the filtered cell extract. Purification protocol, as described in Tsai et al. (2016), included a combination of nickel ion-affinity chromatography, size exclusion, and a final ion exchange chromatography step.
(§2) SPR was performed using the Biacore T200 Enhanced Sensitivity model (GE, Healthcare, UK). Protein was immobilised on a CM5 chip, following the manufacturer’s instructions until it reached 1000 response units (RU). SPR was run with a range of peptide concentrations from 64 µM to 0.125 µM, in a buffer of 20 mM Tris pH 7.9, 50 mM NaCl. Biacore T200 evaluation software was used for data analysis.

NRP1-b1 = target: T2, NRP1-b1 (Homo sapiens, UniProt O14786); test: Thermostability shift assay, NRP1-b1; type: binding; conditions: 5 µM protein, 1 mM ligand, 10X SYPRO Orange, LightCycler 480 II; average of four measurements
T2 construct: 6-His-tag with TEV protease cleavage site (N); made in house; host or cells: Rosetta-gami2(DE3)pLysS E. coli
T2 sequence (O14786 275-424 limits assumed): T1 sequence (O14786 275-424 limits assumed)
Experimental: Thermostability assays were performed on the LightCycler 480 II (Roche) with a final concentration of 5 µM protein, 1 mM ligand and 10X of SYPRO Orange, in DMSO (Thermo Fisher). Negative and positive control experiments were performed using the protein with buffer alone or the ligand without protein and the protein with a strongly binding ligand EG01377, respectively. Experiments were carried out in duplicates on two separate days for two different batches of protein preparations and the values in the table represent the averages from the four measurements.

[2] = target: T3, NRP2-b1 (b1 domain of Neuropilin-2) (Homo sapiens, UniProt O60462); test: Surface plasmon resonance, peptide binding to immobilised NRP2-b1; conditions: SPR, Biacore T200, protein immobilised on CM5 chip (1000 RU), peptide 64 µM to 0.125 µM, 20 mM Tris pH 7.9, 50 mM NaCl
T3 construct: 6-His-tag with TEV protease cleavage site (N); made in house; host or cells: Rosetta-gami2(DE3)pLysS E. coli
T3 sequence (O60462 277-427 limits assumed): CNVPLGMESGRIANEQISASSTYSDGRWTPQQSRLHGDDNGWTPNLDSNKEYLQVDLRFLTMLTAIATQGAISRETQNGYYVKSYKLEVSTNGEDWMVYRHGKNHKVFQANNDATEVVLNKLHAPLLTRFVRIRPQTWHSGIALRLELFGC
From the text: as §1, §2

Ac-AAAAR [Con, reference compound]
Kd [1]: 33.1 µM
shift in Tm (ΔTm) of NRP1-b1 (NRP1-b1): 3.0 ± 0.2 °C
Kd [2]: 92.2 µM

Ac-SIIRR [C]
Kd [1]: 33.2 µM
shift in Tm (ΔTm) of NRP1-b1 (NRP1-b1): 2.0 ± 0.3 °C
Kd [2]: 27.1 µM

Ac-RPQPR [B186]
Kd [1]: 10 µM
shift in Tm (ΔTm) of NRP1-b1 (NRP1-b1): 3.6 ± 0.2 °C
Kd [2]: 24.8 µM

Ac-DKPRR [A165]
Kd [1]: 7.87 µM
shift in Tm (ΔTm) of NRP1-b1 (NRP1-b1): 3.5 ± 0.2 °C
Kd [2]: 30.9 µM

Ac-RKLRR [B167]
Kd [1]: 4.12 µM
Kd [2]: 13 µM
